Assay results reported in paper PMC2829555, “The zebrafish genome encodes the largest vertebrate repertoire of functional aquaporins with dual paralogy and substrate specificities similar to mammals” (BMC Evolutionary Biology, 2010).

Key:
Assay in all cases: radiolabelled solute uptake in cRNA-injected oocytes
Type in all cases: cell-based
Settings in all cases: MBS buffer, 1 mM solute, 10 min, room temperature; labelled compound
[1] = target: T1, DrAqp8ab (Danio rerio, UniProt A0A8N1TQ94)
T1 construct: gene aqp8a.2; full-length cDNA in pT7Ts, untagged, cRNA-injected Xenopus laevis oocytes
T1 sequence (A0A8N1TQ94 1-257): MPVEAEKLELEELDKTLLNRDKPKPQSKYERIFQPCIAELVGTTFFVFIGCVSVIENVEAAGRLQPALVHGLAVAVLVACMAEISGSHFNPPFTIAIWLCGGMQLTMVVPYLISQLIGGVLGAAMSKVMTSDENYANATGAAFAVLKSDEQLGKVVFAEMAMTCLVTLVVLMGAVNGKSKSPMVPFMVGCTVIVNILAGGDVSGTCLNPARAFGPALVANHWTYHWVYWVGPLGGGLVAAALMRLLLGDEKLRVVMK

[2] = target: T2, DrAqp3a (Danio rerio, UniProt Q803U6)
T2 construct: gene aqp3a; full-length cDNA in pT7Ts, untagged, cRNA-injected Xenopus laevis oocytes
T2 sequence (Q803U6 1-296): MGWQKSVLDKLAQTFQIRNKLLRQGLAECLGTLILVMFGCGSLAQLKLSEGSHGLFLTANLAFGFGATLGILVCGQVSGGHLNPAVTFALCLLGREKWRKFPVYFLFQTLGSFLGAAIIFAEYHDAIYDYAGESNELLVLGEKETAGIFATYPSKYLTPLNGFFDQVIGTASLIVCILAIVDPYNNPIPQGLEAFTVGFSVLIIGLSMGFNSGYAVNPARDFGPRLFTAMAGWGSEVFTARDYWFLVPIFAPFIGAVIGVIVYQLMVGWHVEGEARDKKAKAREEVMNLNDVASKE

[3] = target: T3, DrAqp9b (Danio rerio, UniProt D5FFZ1)
T3 construct: gene aqp9b; full-length cDNA in pT7Ts, untagged, cRNA-injected Xenopus laevis oocytes; FJ655387 is printed for both 9a and 9b
T3 sequence (D5FFZ1 1-291): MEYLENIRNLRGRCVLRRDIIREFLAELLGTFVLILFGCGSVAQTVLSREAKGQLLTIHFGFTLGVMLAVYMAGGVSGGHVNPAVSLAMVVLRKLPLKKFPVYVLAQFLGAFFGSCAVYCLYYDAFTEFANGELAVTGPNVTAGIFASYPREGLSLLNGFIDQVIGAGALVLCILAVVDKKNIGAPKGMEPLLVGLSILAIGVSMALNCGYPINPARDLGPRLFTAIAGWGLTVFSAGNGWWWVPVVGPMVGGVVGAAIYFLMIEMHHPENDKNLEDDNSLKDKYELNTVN

[4] = target: T4, DrAqp7 (Danio rerio, UniProt D3TZW4)
T4 construct: gene aqp7; full-length cDNA in pT7Ts, untagged, cRNA-injected Xenopus laevis oocytes
T4 sequence (D3TZW4 1-303): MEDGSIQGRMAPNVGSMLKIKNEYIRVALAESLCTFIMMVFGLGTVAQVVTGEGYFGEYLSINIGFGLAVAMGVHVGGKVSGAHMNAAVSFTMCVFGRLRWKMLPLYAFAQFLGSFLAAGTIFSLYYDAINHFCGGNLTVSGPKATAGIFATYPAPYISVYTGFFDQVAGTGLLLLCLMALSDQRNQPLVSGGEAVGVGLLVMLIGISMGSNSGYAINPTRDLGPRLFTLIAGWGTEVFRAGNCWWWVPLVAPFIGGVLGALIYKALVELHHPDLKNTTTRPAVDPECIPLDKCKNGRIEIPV

[5] = target: T5, DrAqp8aa (Danio rerio, UniProt Q66I64)
T5 construct: gene aqp8a.1; full-length cDNA in pT7Ts, untagged, cRNA-injected Xenopus laevis oocytes
T5 sequence (Q66I64 1-260): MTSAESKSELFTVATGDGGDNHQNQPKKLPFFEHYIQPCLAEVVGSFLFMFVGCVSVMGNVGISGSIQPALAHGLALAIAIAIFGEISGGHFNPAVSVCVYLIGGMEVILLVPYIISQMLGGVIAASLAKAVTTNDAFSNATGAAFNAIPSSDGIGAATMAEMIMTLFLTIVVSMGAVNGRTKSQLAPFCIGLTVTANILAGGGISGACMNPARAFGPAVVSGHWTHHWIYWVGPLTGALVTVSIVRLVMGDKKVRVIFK

[6] = target: T6, DrAqp3b (Danio rerio, UniProt D3TI80)
T6 construct: gene aqp3b; full-length cDNA in pT7Ts, untagged, cRNA-injected Xenopus laevis oocytes
T6 sequence (D3TI80 1-299): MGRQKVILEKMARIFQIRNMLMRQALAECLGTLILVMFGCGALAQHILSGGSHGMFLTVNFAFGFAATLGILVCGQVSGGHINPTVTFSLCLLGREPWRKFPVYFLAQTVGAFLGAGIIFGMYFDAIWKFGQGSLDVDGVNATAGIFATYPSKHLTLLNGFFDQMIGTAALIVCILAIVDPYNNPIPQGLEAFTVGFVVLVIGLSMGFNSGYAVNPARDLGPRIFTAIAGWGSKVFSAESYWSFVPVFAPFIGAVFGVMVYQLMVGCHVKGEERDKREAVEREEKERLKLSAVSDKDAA

[7] = target: T7, DrAqp9a (Danio rerio, UniProt Q498W2)
T7 construct: gene aqp9a; full-length cDNA in pT7Ts, untagged, cRNA-injected Xenopus laevis oocytes
T7 sequence (Q498W2 1-294): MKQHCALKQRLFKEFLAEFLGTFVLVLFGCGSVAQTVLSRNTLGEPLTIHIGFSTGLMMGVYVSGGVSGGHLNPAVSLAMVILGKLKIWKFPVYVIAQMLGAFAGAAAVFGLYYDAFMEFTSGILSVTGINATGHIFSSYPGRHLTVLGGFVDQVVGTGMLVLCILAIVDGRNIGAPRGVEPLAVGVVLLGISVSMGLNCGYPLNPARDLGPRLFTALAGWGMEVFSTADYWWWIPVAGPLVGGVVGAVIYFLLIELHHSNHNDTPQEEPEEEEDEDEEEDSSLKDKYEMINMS

[8] = target: T8, DrAqp10a (Danio rerio, UniProt A0A8M1N0C8)
T8 construct: gene aqp10a; full-length cDNA in pT7Ts, untagged, cRNA-injected Xenopus laevis oocytes
T8 sequence (A0A8M1N0C8 1-293): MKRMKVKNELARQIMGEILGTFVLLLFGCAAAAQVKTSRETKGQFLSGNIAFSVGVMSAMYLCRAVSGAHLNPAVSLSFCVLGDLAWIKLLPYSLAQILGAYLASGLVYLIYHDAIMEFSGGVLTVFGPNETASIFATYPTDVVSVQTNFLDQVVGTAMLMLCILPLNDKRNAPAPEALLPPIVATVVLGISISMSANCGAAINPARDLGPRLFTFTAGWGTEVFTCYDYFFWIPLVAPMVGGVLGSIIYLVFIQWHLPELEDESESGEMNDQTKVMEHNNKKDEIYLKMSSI

[9] = target: T9, DrAqp10b (Danio rerio, UniProt Q1L8T0)
T9 construct: gene aqp10b; full-length cDNA in pT7Ts, untagged, cRNA-injected Xenopus laevis oocytes
T9 sequence (Q1L8T0 1-276): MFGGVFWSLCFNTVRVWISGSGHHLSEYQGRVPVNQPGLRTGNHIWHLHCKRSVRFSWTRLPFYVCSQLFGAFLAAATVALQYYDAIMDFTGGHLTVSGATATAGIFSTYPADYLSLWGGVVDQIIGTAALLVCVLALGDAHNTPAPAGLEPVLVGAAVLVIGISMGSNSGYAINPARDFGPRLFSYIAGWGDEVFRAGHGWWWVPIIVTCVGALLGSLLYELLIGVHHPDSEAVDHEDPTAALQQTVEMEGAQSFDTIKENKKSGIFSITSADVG

Compound | radiolabelled solute uptake in cRNA-injected oocytes [1] | radiolabelled solute uptake in cRNA-injected oocytes [2] | radiolabelled solute uptake in cRNA-injected oocytes [3] | radiolabelled solute uptake in cRNA-injected oocytes [4] | radiolabelled solute uptake in cRNA-injected oocytes [5] | radiolabelled solute uptake in cRNA-injected oocytes [6] | radiolabelled solute uptake in cRNA-injected oocytes [7] | radiolabelled solute uptake in cRNA-injected oocytes [8] | radiolabelled solute uptake in cRNA-injected oocytes [9]
NC(N)=O [urea] | Oocytes expressing draqp8aa or -8ab were permeable to water and urea, but not glycerol | draqp3a, -3b, -7, -9a, -9b, -10a and -10b were also permeable to glycerol and urea | draqp3a, -3b, -7, -9a, -9b, -10a and -10b were also permeable to glycerol and urea | draqp3a, -3b, -7, -9a, -9b, -10a and -10b were also permeable to glycerol and urea | Oocytes expressing draqp8aa or -8ab were permeable to water and urea, but not glycerol | draqp3a, -3b, -7, -9a, -9b, -10a and -10b were also permeable to glycerol and urea | draqp3a, -3b, -7, -9a, -9b, -10a and -10b were also permeable to glycerol and urea | draqp3a, -3b, -7, -9a, -9b, -10a and -10b were also permeable to glycerol and urea | in the case of draqp10b urea permeability was low
OCC(O)CO [glycerol] | – | draqp3a, -3b, -7, -9a, -9b, -10a and -10b were also permeable to glycerol and urea | draqp3a, -3b, -7, -9a, -9b, -10a and -10b were also permeable to glycerol and urea | draqp3a, -3b, -7, -9a, -9b, -10a and -10b were also permeable to glycerol and urea | – | draqp3a, -3b, -7, -9a, -9b, -10a and -10b were also permeable to glycerol and urea | draqp3a, -3b, -7, -9a, -9b, -10a and -10b were also permeable to glycerol and urea | draqp3a, -3b, -7, -9a, -9b, -10a and -10b were also permeable to glycerol and urea | draqp3a, -3b, -7, -9a, -9b, -10a and -10b were also permeable to glycerol and urea
